This is an account of results in patent US20250009725A1, “PHARMACEUTICAL COMPOSITION HAVING EXCELLENT DISSOLUTION PROPERTIES” (DAIICHI SANKYO COMPANY, LIMITED, priority 2021, published 2025).

The series can be described thus: Solubility and dissolution of valemetostat tosylate under vigorous or slow agitation. Format: physicochemical. The source says: The object of the present invention is to provide a pharmaceutical composition in which valemetostat or a pharmaceutically acceptable salt thereof, particularly valemetostat tosylate, has excellent dissolution properties. […] Since the effect of vigorous agitation cannot be expected in vivo, a pharmaceutical composition having sufficient dissolution properties in vivo is needed.

Structures can show the parent of a compound that is named as a salt.

Turning to `Cc1cc(C)c(CNC(=O)c2cc(Cl)c3c(c2C)O[C@@](C)([C@H]2CC[C@H](N(C)C)CC2)O3)c(=O)[nH]1` [valemetostat tosylate, (2R)-7-chloro-2-[trans-4-(dimethylamino)cyclohexyl]-N-[(4,6-dimethyl-2-oxo-1,2-dihydropyridin-3-yl)methyl]-2,4-dimethyl-1,3-benzodioxol-5-carboxamide p-toluenesulfonate], the “solubility (in words)” value is reported as “sufficient solubility”.
